Among the data in patent US12435072B2, “Compounds” (Vicore Pharma AB, priority 2019, dated 2025) are IC50 and inhibition values, retold here.

In data set [1] the target is T1, human recombinant AT1 receptor (Homo sapiens, UniProt P30556).
T1 construct: purchased Eurofins ITEM24
T1 sequence (P30556 1-359): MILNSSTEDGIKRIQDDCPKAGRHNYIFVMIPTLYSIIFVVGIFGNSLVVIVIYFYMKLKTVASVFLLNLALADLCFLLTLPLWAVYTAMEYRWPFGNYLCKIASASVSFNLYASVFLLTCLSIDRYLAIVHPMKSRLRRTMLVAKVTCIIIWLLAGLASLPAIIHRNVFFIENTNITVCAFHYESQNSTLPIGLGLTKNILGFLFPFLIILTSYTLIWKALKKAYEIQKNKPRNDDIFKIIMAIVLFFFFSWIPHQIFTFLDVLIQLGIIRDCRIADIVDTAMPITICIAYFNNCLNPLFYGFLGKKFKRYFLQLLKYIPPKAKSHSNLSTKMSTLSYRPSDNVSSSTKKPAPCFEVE
Kind of data set: Binding to AT1 receptor, radiometric scintillation assay (Eurofins). As to conditions: ligand 125I(sar1,Ile8)-AT-II, tested at 1 and 10 μM. As to the method:
(§1) Compounds were evaluated for binding to the human recombinant AT2 and AT1 receptor according to Eurofins protocol ITEM26 and ITEM24 using a radiometric scintillation assay.

The target in another data set is T2, CYP2B6 (Homo sapiens, UniProt P20813).
T2 construct: incubated with human liver microsomes; tissue Eurofins ITEMG232; host or cells: human liver microsomes
T2 sequence (P20813 1-491): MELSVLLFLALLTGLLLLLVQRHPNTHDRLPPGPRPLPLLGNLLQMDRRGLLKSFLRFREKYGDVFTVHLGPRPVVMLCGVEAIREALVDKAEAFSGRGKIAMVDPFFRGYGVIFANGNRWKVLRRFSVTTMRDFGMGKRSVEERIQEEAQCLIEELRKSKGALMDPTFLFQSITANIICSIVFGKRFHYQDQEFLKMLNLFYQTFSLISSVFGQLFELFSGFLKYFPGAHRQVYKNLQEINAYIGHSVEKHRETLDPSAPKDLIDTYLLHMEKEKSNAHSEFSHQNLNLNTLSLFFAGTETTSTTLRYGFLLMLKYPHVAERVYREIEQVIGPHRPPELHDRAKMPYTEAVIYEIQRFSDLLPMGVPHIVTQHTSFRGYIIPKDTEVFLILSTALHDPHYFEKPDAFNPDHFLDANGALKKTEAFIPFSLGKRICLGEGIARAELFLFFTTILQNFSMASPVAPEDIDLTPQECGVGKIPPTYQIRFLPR
Kind of data set: CYP inhibition in human liver microsomes, CYP2B6. The conditions noted are these: probe bupropion, substrate bupropion, read-out: CYP2B6 Inh %. It counts as in vitro ADME. On the procedure:
(§2) The following substrates were used: CYP1A phenacetin, CYP2B6 bupropion, CYP2C8 paclitaxel and amodiaquine, CYP2C9 diclofenac, CYP2C19 omeprazole, CYP2D6 dextromethorphan, CYP3A midazolam and testosterone. At the end of the incubation, the formation of metabolite was monitored by HPLC-MS/MS as the peak area response.
Background: Liver microsomes are vesicles of endoplasmic reticulum, rich in cytochrome P450 enzymes.

The next data set relates to CYP3A4&5. Kind of data set: CYP inhibition in human liver microsomes, CYP3A4&5 (testosterone). It counts as in vitro ADME. The conditions noted are these: probe testosterone, substrate testosterone, read-out: CYP3A4&5 testosterone Inh %. On the procedure: as §2
A further data set has as its target T3, CYP2D6 (Homo sapiens, UniProt P10635).
T3 construct: incubated with human liver microsomes; tissue Eurofins ITEMG232; host or cells: human liver microsomes
Kind of data set: CYP inhibition in human liver microsomes, CYP2D6. The format is in vitro ADME. As to conditions: probe dextromethorphan, substrate dextromethorphan, read-out: CYP2D6 Inh %. In short, it runs like this: (§3)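 Substrate is added to human liver microsomes (CYP2C8: paclitaxel, amodiaquine; CYP2C9: diclofenac; CYP2D6: dextromethorphan). The mixture is incubated. Product is then monitored by HPLC-MS/MS peak area.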

The target of the next data set is T4, CYP1A (Homo sapiens, UniProt P05177).
T4 construct: incubated with human liver microsomes; tissue Eurofins ITEMG232; host or cells: human liver microsomes
T4 sequence (P05177 1-516): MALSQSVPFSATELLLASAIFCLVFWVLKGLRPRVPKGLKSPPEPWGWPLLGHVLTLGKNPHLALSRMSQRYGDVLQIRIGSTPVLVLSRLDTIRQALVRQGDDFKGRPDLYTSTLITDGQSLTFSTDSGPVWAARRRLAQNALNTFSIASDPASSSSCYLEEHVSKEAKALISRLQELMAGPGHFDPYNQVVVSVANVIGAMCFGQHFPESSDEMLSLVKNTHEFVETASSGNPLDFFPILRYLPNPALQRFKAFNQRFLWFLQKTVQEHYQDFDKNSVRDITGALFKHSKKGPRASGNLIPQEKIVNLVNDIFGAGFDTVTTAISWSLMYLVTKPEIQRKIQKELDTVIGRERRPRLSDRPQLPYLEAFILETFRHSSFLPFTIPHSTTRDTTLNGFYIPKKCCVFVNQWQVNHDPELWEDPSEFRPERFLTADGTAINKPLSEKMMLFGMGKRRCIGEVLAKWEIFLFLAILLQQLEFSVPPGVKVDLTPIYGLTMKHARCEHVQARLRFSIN
Kind of data set: CYP inhibition in human liver microsomes, CYP1A. The format is in vitro ADME. The conditions noted are these: probe phenacetin, substrate phenacetin, read-out: CYP1A Inh %. On the procedure: as §2

In data set [2] the target is T5, human recombinant AT2 receptor (Homo sapiens, UniProt P50052).
T5 construct: purchased Eurofins ITEM26
T5 sequence (P50052 1-363): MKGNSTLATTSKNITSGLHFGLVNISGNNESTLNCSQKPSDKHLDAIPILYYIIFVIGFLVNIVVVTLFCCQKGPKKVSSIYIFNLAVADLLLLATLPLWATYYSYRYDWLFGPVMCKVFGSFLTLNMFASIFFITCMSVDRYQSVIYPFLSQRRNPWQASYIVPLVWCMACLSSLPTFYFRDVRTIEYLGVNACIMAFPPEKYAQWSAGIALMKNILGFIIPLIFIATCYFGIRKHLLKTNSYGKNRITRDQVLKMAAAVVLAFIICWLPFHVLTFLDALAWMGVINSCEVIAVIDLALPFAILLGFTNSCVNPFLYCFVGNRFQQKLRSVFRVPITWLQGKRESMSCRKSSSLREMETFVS
Kind of data set: Binding to AT2 receptor, radiometric scintillation assay (Eurofins). As to conditions: ligand 125I CGP 42112A, tested at 1, 10, 100 and 1000 nM. As to the method:
as §1

A further data set concerns the target CYP2C9 (Homo sapiens, UniProt P11712). Kind of data set: CYP inhibition in human liver microsomes, CYP2C9. It counts as in vitro ADME. Details: incubated with human liver microsomes; tissue Eurofins ITEMG232; host or cells: human liver microsomes. As to conditions: probe diclofenac, substrate diclofenac, read-out: CYP2C9 Inh %. The gist of the method: as §3
A further data set concerns the target CYP3A4 (Homo sapiens, UniProt P08684). Kind of data set: CYP inhibition in human liver microsomes, CYP3A4 (midazolam). It counts as in vitro ADME. The arrangement: incubated with human liver microsomes; tissue Eurofins ITEMG232; host or cells: human liver microsomes. As to conditions: probe midazolam, substrate midazolam, read-out: CYP3A4 midazolam Inh %. As to the method: as §2

For the next data set, the target named is T6, CYP2C19 (Homo sapiens, UniProt P33261).
T6 construct: incubated with human liver microsomes; tissue Eurofins ITEMG232; host or cells: human liver microsomes
Put plainly: CYP inhibition in human liver microsomes, CYP2C19. As to conditions: probe omeprazole, substrate omeprazole, read-out: CYP2C19 Inh %. The format is in vitro ADME. As to the method:
as §2

The IC50 is the concentration that gives 50% inhibition.

Sequence of CYP2C9 (P11712 whole entry): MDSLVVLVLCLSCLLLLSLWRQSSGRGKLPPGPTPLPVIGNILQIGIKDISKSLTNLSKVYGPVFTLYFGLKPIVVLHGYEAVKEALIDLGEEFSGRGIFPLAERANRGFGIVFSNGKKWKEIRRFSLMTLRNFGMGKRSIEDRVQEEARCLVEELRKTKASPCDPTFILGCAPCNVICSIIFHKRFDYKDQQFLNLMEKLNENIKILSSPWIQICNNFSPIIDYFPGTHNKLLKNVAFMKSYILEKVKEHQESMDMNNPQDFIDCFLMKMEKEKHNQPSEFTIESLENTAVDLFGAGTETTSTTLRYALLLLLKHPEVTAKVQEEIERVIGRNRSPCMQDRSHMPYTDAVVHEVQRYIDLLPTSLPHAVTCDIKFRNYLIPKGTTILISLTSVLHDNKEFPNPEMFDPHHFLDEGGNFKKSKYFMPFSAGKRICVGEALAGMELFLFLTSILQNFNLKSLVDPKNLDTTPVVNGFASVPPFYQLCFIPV
Sequence of CYP3A4 (P08684 whole entry): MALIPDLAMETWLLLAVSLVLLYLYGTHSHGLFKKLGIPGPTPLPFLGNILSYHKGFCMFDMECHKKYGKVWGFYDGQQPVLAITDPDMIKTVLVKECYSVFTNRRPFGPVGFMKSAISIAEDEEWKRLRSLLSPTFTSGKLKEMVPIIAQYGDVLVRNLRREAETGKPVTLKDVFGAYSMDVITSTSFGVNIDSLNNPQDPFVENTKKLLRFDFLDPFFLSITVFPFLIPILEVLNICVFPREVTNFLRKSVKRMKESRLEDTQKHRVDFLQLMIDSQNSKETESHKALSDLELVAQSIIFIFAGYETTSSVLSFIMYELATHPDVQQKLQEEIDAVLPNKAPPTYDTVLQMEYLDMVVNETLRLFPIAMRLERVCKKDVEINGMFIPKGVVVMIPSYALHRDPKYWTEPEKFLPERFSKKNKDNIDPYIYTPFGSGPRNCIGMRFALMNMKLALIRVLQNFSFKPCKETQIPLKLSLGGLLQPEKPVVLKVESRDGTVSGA
T3 sequence (P10635 whole entry): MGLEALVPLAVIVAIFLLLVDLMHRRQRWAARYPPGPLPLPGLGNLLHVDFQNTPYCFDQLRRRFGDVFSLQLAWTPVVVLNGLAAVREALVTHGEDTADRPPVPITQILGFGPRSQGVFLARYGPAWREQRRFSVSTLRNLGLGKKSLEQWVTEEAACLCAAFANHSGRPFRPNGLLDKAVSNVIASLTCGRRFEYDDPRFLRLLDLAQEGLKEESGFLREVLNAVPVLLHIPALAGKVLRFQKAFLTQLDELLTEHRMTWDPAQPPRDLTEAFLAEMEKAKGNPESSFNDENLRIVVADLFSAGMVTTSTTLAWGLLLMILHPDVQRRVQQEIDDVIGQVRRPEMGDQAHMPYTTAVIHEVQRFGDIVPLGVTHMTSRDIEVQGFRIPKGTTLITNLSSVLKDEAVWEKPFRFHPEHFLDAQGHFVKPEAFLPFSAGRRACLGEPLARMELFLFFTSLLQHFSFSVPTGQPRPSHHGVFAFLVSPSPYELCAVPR
T6 sequence (P33261 whole entry): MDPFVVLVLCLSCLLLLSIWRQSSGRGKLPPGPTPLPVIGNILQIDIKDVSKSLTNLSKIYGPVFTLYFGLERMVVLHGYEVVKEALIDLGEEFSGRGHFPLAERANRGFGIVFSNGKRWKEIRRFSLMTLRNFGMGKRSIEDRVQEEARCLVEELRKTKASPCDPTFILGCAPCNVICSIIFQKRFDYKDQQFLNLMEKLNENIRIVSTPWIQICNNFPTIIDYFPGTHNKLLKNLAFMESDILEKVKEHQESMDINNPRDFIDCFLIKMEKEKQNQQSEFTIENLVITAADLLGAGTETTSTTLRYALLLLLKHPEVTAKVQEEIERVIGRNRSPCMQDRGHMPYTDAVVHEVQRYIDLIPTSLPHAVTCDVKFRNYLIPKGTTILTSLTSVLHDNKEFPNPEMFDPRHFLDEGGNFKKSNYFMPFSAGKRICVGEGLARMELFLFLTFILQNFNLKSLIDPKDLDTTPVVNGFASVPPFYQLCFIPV

Take `Cc1nccn1Cc1ccc(-c2cc(CC(C)C)sc2S(=O)(=O)NC(=O)NCC(C)C)cc1F.O=C(O)C(F)(F)F` [Example 39, 1-[(3-{3-fluoro-4-[(2-methyl-1H-imidazol-1-yl)methyl]phenyl}-5-(2-methylpropyl)thiophen-2-yl)sulfonyl]-3-(2-methylpropyl)urea trifluoroacetic acid]: the figures for the IC50 in data set [1] and in data set [2] were 16000 nM and 8.6 nM, respectively. Moreover, the inhibition at 10 µM at CYP2B6 is 28%; in the data set with CYP3A4&5, 27%; at CYP2D6, 10%; at CYP1A, -2%; at CYP2C9, 44%; at CYP3A4, 18%. Moreover, the inhibition at 10 µM at CYP2C19 turned out to be 56%.

Turning to `Cc1nccn1Cc1ccc(-c2cc(CC(C)C)sc2S(=O)(=O)NC(=O)NCC2CCC(F)(F)CC2)cc1F.O=C(O)C(F)(F)F` [Example 40, 1-[(4,4-difluorocyclohexyl)methyl]-3-[(3-{3-fluoro-4-[(2-methyl-1H-imidazol-1-yl)methyl]phenyl}-5-(2-methylpropyl)thiophen-2-yl)sulfonyl]urea trifluoroacetic acid], the values for the IC50 in data set [1] and in data set [2] were 17000 nM and 7.7 nM, respectively. For the same compound, the inhibition at 10 µM is 54% on CYP2B6; 63% in the data set on CYP3A4&5; 47% on CYP2D6; -1% on CYP1A; 70% on CYP2C9; 85% at CYP3A4. Moreover, the inhibition at 10 µM on CYP2C19 came out at 80%.

Take `CC(C)Cc1cc(-c2ccc(Cn3ccnc3C(C)C)c(F)c2)c(S(=O)(=O)NC(=O)NCCC(F)(F)F)s1.O=C(O)C(F)(F)F` [Example 41, 1-{[3-(3-fluoro-4-{[2-(propan-2-yl)-1H-imidazol-1-yl]methyl}phenyl)-5-(2-methylpropyl)thiophen-2-yl]sulfonyl}-3-(3,3,3-trifluoropropyl)urea trifluoroacetic acid]: the figures for the IC50 in data set [1] and in data set [2] were 4000 nM and 4.9 nM, respectively. In addition, the inhibition at 10 µM on CYP2B6 is 30%; in the data set on CYP3A4&5 it was 10%; at CYP2D6 it was 12%; at CYP1A it was 5%; at CYP2C9, 58%; at CYP3A4 it was -5%. Further, the inhibition at 10 µM at CYP2C19 worked out at 53%.
